Measured values reported in ChEMBL document CHEMBL1127266, “N-sulfonamides of benzopyran-related potassium channel openers: Conversion of glyburide insensitive smooth muscle relaxants to potent smooth muscle contractors” (Bioorg Med Chem Lett, 1994).
Values joined by “and” are separate entries in the source; they are usually repeats but may differ in a detail not shown here. Equal values may be shown once.

Tests used:
Type in all cases: functional
Rattus norvegicus [1] = species: Rattus norvegicus; assay: Percent activity at 30 uM as the increase (+) and/or decrease (-) in the contractile response for each individual experiment in rat bladder; parameters: scale not given: the % may be the effect or the level left
Rattus norvegicus [2] = species: Rattus norvegicus; assay: Percent glyburide reversibility as potassium channel (K ATP) opening activity assay
Rattus norvegicus [3] = species: Rattus norvegicus; assay: In vitro evaluation for concentration to inhibit KCI (15 mM ) induced contractions of rat bladder
Rattus norvegicus [4] = species: Rattus norvegicus; assay: In vitro evaluation for concentration to inhibit KCI (25 mM ) induced contractions of rat aorta

| Compound | Activity (Rattus norvegicus [1]) | GR (Rattus norvegicus [2]) | IC50 (Rattus norvegicus [3]; Rattus norvegicus) | also measured |
| --- | --- | --- | --- | --- |
| CC1(C)Oc2ccc(OC(F)(F)F)cc2[C@@H](NS(=O)(=O)c2ccccc2)[C@@H]1O | 44% |  |  |  |
| CC1(C)C[C@H](NS(=O)(=O)C(F)(F)F)c2cc(OC(F)(F)F)ccc2O1 |  | 41% | 6.2 µM | IC50 (Rattus norvegicus [4]; Rattus norvegicus, Aorta): 10.7 µM |
| CC1(C)Oc2ccc(OC(F)(F)F)cc2[C@@H](NS(=O)(=O)C(F)(F)F)[C@@H]1O (stereo in doubt; 1) [listing 1 of 2 here] |  |  | 4.6 µM | IC50 (Rattus norvegicus [4]): 8 µM |
| CN([C@@H]1c2cc(OC(F)(F)F)ccc2OC(C)(C)[C@H]1O)S(=O)(=O)C(F)(F)F | 352% |  |  |  |
| CC1(C)Oc2ccc(OC(F)(F)F)cc2[C@@H](NS(=O)(=O)CCl)[C@@H]1O | 39% |  |  |  |
| CC1(C)Oc2ccc(OC(F)(F)F)cc2[C@@H](NS(=O)(=O)c2cccc3ccccc23)[C@@H]1O | 52% |  |  |  |
| CC1(C)Oc2ccc(OC(F)(F)F)cc2[C@@H](NS(=O)(=O)C(F)(F)F)[C@@H]1O (stereo in doubt; 8) [listing 1 of 2 here] |  |  |  | IC50 (Rattus norvegicus [3]): 3.6 µM; IC50 (Rattus norvegicus [4]): 2 µM |
| CC1(C)Oc2ccc(OC(F)(F)F)cc2[C@@H](NS(=O)(=O)C(F)(F)F)[C@@H]1O (stereo in doubt; 1) [listing 2 of 2 here] |  | 14% and 2% |  |  |
| CC1(C)Oc2ccc(C#N)cc2[C@H](N2CCCC2=O)[C@H]1O (single isomer, unassigned) [(-)-CROMAKALIM] |  | 68% and 75% | 0.15 µM | IC50 (Rattus norvegicus [4]; Rattus norvegicus, Aorta): 0.06 µM |
| CC1(C)Oc2ccc(OC(F)(F)F)cc2[C@H](NS(=O)(=O)c2ccc([N+](=O)[O-])cc2)[C@H]1O | 4.68% | 0% |  |  |
| CC1(C)Oc2ccc(OC(F)(F)F)cc2[C@@H](NS(=O)(=O)C(F)(F)F)[C@@H]1O (stereo in doubt; 8) [listing 2 of 2 here] |  | 0% |  |  |
| CC1(C)Oc2ccc(OC(F)(F)F)cc2[C@@H](NS(=O)(=O)c2ccc([N+](=O)[O-])cc2)[C@@H]1O | 195% |  |  |  |
| CC1(C)Oc2ccc(OC(F)(F)F)cc2[C@@H](NS(=O)(=O)c2cccnc2)[C@@H]1O | 133% |  |  |  |
| CC1(C)Oc2ccc(OC(F)(F)F)cc2[C@H](NS(=O)(=O)C(F)(F)F)[C@H]1O |  | 0% | 7.1 µM | IC50 (Rattus norvegicus [4]; Rattus norvegicus, Aorta): 2.6 µM |
| CC1(C)Oc2ccc(OC(F)(F)F)cc2[C@@H](N2Cc3ccccc3C2=O)[C@@H]1O [CELIKALIM] |  | 80% and 55% | 0.03 µM | IC50 (Rattus norvegicus [4]; Rattus norvegicus, Aorta): 0.013 µM |
| CC1(C)Oc2ccc(OC(F)(F)F)cc2[C@@H](NS(C)(=O)=O)[C@@H]1O | 3% | 8% |  |  |
